Data set [1] has as its system Human STING (hSTING, UNIPROT entry Q86WV6, residues 155-341). As to the kind of experiment: Interaction with hSTING by differential scanning fluorimetry (DSF). In kind it is binding. The note with it: 100 μM test compound, 5 μM hSTING protein. The method, then:
In DSF, the temperature at which a protein unfolds, also called the melting temperature Tm, is measured by changes in fluorescence of a dye that binds to the hydrophobic parts of the protein. Tm shifts upon binding of a small molecule are correlated with the binding affinity of this small molecule. As target protein, Human STING (hSTING, UNIPROT entry Q86WV6, residues 155-341, MW: 21578.4 Da; protein stock solution: c=1302 μM stock solution in 20 mM Tris, 100 mM NaCl, 2 mM TCEP pH 8.8) was used, as assay buffer 20 mM Tris, 150 mM NaCl pH7.5 was added where and as necessary.
Final concentrations of components in assay: 100 μM test compounds, 5 μM target protein, “5×” SYPR Orange (from stock solution SYPRO orange solution in DMSO (invitrogen cat.-no. 56650-500ul), concentration “5000×”)
Assay Procedure: • 1) Dilutions of compound stock solutions (10 mM in DMSO) were prepared in assay buffer (20 mM Tris, 150 mM NaCl; pH7.5) • 2) 5 μl fluorescent dye stock solution (5000×SYPRO Orange in DMSO) was mixed with 19 μl target protein (1302 μM) and 976 μl assay buffer. • 3) 2 μl of this protein-dye-mixture (25×SYPRO Orange and 25 μM Protein) was added to 8 μl diluted compound solution as prepared in step 1. Final volume was 10 μl. • 4) With every 20 compounds, two negative controls were measured. • 5) The plates were prepared for duplicate measurement and centrifuged for 2 min at 1000 g. • 6) For the measurement, a CFX384 Real-Time System (Bio-Rad) was used. The run consisted of 140 cycles with 0.5° C./cycle (temperature ramp 15 s/cycle, 25° C. to 95° C.).
Data analysis: The melting curves were processed in Bio-Rad CFX Manager. Peak type was set to “negative”. Two replicates of TM (melting temperature) measurements were averaged and the standard deviation was calculated.
On the technique in general: Differential scanning fluorimetry follows unfolding on heating by fluorescence.

Another data set addresses T1, human STING variant HAQ (Homo sapiens, UniProt Q86WV6, G230A/H232R/R293Q/R71H).
T1 construct: expressed in transfected cells; host or cells: THP1-Blue ISG: either parental cells (endogenous HAQ) or hSTING KO clone retrovirally transduced with HAQ
As to the kind of experiment: THP1-Blue ISG IRF-inducible SEAP reporter assay, STING HAQ-variant. It is filed as cell-based. The note with it: THP1-Blue ISG cells expressing STING HAQ (parental or re-introduced); 24 hours incubation; SEAP OD 620 nm. The source says: (§1) Activation of the STING protein expressed in cell lines results in an increase of interferon production. By the stable integration of an interferon regulatory factor (IRF)-inducible SEAP gene (secreted embryonic alkaline phosphatase) reporter construct the functional interferon signaling pathway can be monitored. Using Invivogen's THP1-Blue™ ISG colorimetric enzyme assay and a suitable optical density (OD) reader the activity of SEAP can be detected and quantified. This technique could be used to characterize pharmacological modification of the STING pathway.
(§2) Several single nucleotide polymorphisms have been identified in the human STING gene. To determine the activity of the above described compounds, THP1-Blue™ ISG reporter cell lines expressing the different human STING variants have been generated. To do so, the endogenous human STING was first deleted using the CRISPR/CAS9 system: THP1-Blue ISG cells were electroporated with ALL-IN-ONE CRISPR plasmids targeting the STING gene (purchased from Sigma encoding the gRNA and GFP as a reporter gene for successful transduction). GFP positive cells then were sorted 24 h post transfection and expanded. Cells were then dispersed in semisolid methocel medium to allow single cell clone isolations. Clones were then screened for cGAMP responsiveness using the Quanti-Blue™ reporter assay. Non-responsive clones were subsequently analysed for STING loss by western blotting and sequencing of the STING locus.
(§3) For the overexpression of the human STING variants, a confirmed THP1-Blue™ ISG hSTING KO clone was transduced with individual retroviral plasmids (MSCV-ires-GFP-Blasti) encoding the allelic variants of hSTING (WT (H232R), HAQ, R232H, AQ and R293Q). Transduced cells were sorted for different levels of GFP fluorescence and STING allele expression was analysed by western blot.
(§4) Measurements of SEAP activity were performed in THP1-Blue™ ISG cells stably expressing the different human STING isoforms and the IRF-inducible SEAP reporter construct. Cells were cultivated in RPMI1640 medium with 10% fetal calf serum, 50 μg/ml Penicillin-Streptomycin, 100 μg/ml Zeocin, and 100 μg/ml Normocin in a 37°, 95% humidity and 5% CO2 incubator.
(§5) In preparation for the assay, the cells were distributed into the assay plates with a density of 10000 cells/15 μL per well. Compounds were prepared by an 8 point serial dilution in 50% aqueous DMSO and a final dilution step into medium to ensure a final DMSO concentration of 0.5% in the assay. 5 μL of diluted compounds were added to the plates, followed by a 24 hours incubation at 37° C.
(§6) At the day of the assay, 75 μl per well of Quanti-Blue™ reagent was added to all wells of the plate and the plate was incubated another 30 minutes at 37° C. The OD at 620 nm was measured on the EnVision reader (PerkinElmer).
Data of EC50 values on STING HAQ-variant can be found in table 2a. Shown data below were either derived from the parental THP1-Blue™ ISG cell lines (which express endogenously HAQ) or from genetically engineered THP1-Blue™ ISG cell lines in which first STING has been knocked-out and the HAQ specific STING isoform has been re-introduced as described above.
A general note: A reporter such as luciferase makes a cellular process visible.

Data set [2] addresses T2, human STING variant R293Q (Homo sapiens, UniProt Q86WV6, H232R/R293Q).
T2 construct: expressed in transfected cells; host or cells: THP1-Blue ISG hSTING KO clone, retroviral MSCV-ires-GFP-Blasti
As to the kind of experiment: THP1-Blue ISG IRF-inducible SEAP reporter assay, STING R293Q-variant. It is filed as cell-based. The note with it: THP1-Blue ISG hSTING KO cells expressing STING R293Q; 24 hours incubation.
From the text: as §1, §2, §3, §4, §5, §6

The target of data set [3] is T3, human STING variant H232R (WT) (Homo sapiens, UniProt Q86WV6, H232R).
T3 construct: expressed in transfected cells; host or cells: THP1-Blue ISG hSTING KO clone, retroviral MSCV-ires-GFP-Blasti
T3 sequence (Q86WV6 whole entry H232R): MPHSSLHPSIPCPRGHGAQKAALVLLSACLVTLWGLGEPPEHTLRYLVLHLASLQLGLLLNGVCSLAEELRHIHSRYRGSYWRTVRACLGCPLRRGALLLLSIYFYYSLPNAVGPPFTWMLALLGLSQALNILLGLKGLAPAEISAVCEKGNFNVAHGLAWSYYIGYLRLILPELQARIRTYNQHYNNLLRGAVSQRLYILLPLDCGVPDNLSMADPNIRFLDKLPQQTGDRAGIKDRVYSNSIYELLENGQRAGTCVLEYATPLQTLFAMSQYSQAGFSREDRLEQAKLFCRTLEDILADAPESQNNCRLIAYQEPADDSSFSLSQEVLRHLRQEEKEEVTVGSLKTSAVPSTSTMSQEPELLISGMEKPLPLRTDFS
As to the kind of experiment: THP1-Blue ISG IRF-inducible SEAP reporter assay, STING H232R-variant. It is filed as cell-based. Particulars: THP1-Blue ISG hSTING KO cells expressing STING H232R; 24 hours incubation.
From the text: as §1, §2, §3, §4, §5, §6

The next data set in a line: in vitro. Particulars: human, Caco-2, pH 7.4.
Data set [4] has as its target T4, human STING variant R232H (Homo sapiens, UniProt Q86WV6).
T4 construct: expressed in transfected cells; host or cells: THP1-Blue ISG hSTING KO clone, retroviral MSCV-ires-GFP-Blasti
As to the kind of experiment: THP1-Blue ISG IRF-inducible SEAP reporter assay, STING R232H-variant. The note with it: THP1-Blue ISG hSTING KO cells expressing STING R232H; 24 hours incubation. It is filed as cell-based.
From the text: as §1, §2, §3, §4, §5, §6

The target of the next data set is T5, human STING variant AQ (Homo sapiens, UniProt Q86WV6, G230A/H232R/R293Q).
T5 construct: expressed in transfected cells; host or cells: THP1-Blue ISG hSTING KO clone, retroviral MSCV-ires-GFP-Blasti
T5 sequence (Q86WV6 whole entry G230A/H232R/R293Q): as the sequence (Q86WV6 whole entry H232R) above, with G230A, R293Q counted along it
As to the kind of experiment: THP1-Blue ISG IRF-inducible SEAP reporter assay, STING AQ-variant. It is filed as cell-based. Particulars: THP1-Blue ISG hSTING KO cells expressing STING AQ; 24 hours incubation.
From the text: as §1, §2, §3, §4, §5, §6

Molecules are shown by their SMILES.

For orientation: EC50 means the concentration giving half of the maximal effect. In general, Papp A→B refers to how fast a substance crosses the layer from the apical side. As usually defined, the efflux ratio is a quotient of directional permeabilities that is used to spot active efflux.

T4 sequence (Q86WV6 whole entry, stated change not applied): as the sequence (Q86WV6 whole entry H232R) above, with R232H counted along it
T2 sequence (Q86WV6 whole entry H232R/R293Q): as the sequence (Q86WV6 whole entry H232R) above, with R293Q counted along it
T1 sequence (Q86WV6 whole entry R71H/G230A/H232R/R293Q): as the sequence (Q86WV6 whole entry H232R) above, with R71H, G230A, R293Q counted along it
Protocol for in vitro: Caco-2 cells were obtained from Leibniz Institute DSMZ-German Collection of Microorganisms and Cell Cultures (Braunschweig, Germany) and cultured in DMEM (Dulbecco's modified Eagle medium) containing (in final concentrations) 10% FCS (fetal calf serum), 1% NEAA (non-essential amino acids), 2 mM Glutamin, 100 U/mL Penicillin and 100 μg/mL Streptomycin. Caco-2 cells were seeded either onto 24-well Transwell inserts (Corning, #3379) for bidirectional permeability assays at a density of 160,000 cells/cm^2 and cultured for 3 weeks, with media change on every second day.
For bidirectional permeability assays 10 mM DMSO stock solutions were diluted in transport buffer (final concentrations: 128.13 mM NaCl, 5.36 mM KCl, 1 mM MgSO4, 1.8 mM CaCl2, 4.17 mM NaHCO3, 1.19 mM Na2HPO4, 0.41 mM NaH2PO4, 15 mM 2-[4-(2-hydroxyethyl)piperazin-1-yl]ethanesulfonic acid (HEPES), 20 mM glucose, pH 7.4) containing 0.25% bovine serum albumin to a final concentration of 10 μM of the test compounds and added to the apical or basal compartment. Cells were incubated with the compounds for up to 2 h. Samples from the opposite compartment were taken at different timepoints.
Compound concentrations in the compartments were quantified using a RapidFire-based high-throughput HPLC/MS/MS system (high performance liquid chromatography/mass spectrometry; BioCius) that was customized to a fully automated and flexible platform, termed RIAS. In this modified setup, the sample was aspirated by a vacuum pump into a 10 μL sample loop for 250 ms and flushed onto a C4 cartridge (3.8 μL bed volume; BioCius) with the aqueous mobile phase (99.9% water, 0.09% formic acid, and 0.01% TFA; flow rate 1.5 mL/min). Prior to bioanalysis samples were spiked with internal standard solution and diluted with acetonitrile (ACN) for protein precipitation. Measurement was operated in multiplereaction monitoring (MRM) mode. Quantification was performed using external calibration. A solid-phase extraction step retained the analyte for 3000 ms while interfering matrix (e.g., buffer components) was removed. With a simple step gradient, the analyte was back-eluted from the cartridge for 3,000 ms with the organic mobile phase (99.9% acetonitrile/methanol [1:1, v:v], 0.09% formic acid, and 0.01% TFA) and flushed into the mass spectrometer at a flow rate of 1.25 mL/min. Afterwards, the cartridge was reequilibrated with the aqueous mobile phase for 500 ms (flow rate 1.5 mL/min). The RapidFire software and a customized control software were obtained from BioCius. QuickQuan 2.3, Xcalibur 2.0.7, and XDK 2.1.0.25 were used to operate the TSQ Vantage mass spectrometer (ThermoFisher, San Jose, CA) integrated to the RapidFire system. Mass spectral data-processing software QuickCalc 7.1.9 was purchased from ThermoFisher. The Master software for the RIAS was programmed in-house using LabVIEW (version 8.6.1; National Instruments, Austin, TX). Data analysis was performed in AssayExplorer 3.2 (Symyx, Sunnyvale, CA), and correlation plots were visualized in Spotfire version 2.2.0 (TIBCO, Palo Alto, CA).
Apparent permeability coefficients in the apical to basal direction (Papp,AB) and in the basal to apical direction (Papp,BA) and efflux ratios were calculated as follows:
Efflux ratio=Papp,BA/Papp,AB
where Q is the amount of compound recovered in the receiver compartment after the incubation time t, C0 the initial compound concentration given to the donor compartment, and s the surface area of the Transwell inserts. […] In addition, transepithelial electrical resistance (TEER) values are measured for each plate before the permeability assay, and total recovery in donor and receiver compartments was determined for each compound.

As for `Cc1cc(F)cc2c(-c3cccc4nn(C)cc34)nn(-c3ccc(N4CCN(C=O)CC4)nc3)c12` [Example #3, 4-(5-(5-Fluoro-2′,7-dimethyl-1H,2′H-[3,4′-biindazol]-1-yl)pyridin-2-yl)piperazine-1-carbaldehyde], the “TM (changes in TM, thermal shift)” value in data set [1] is reported as 21 K. For the same compound, the EC50 is 1900 nM on human STING variant HAQ; 1800 nM in data set [2]; 600 nM in data set [3]; 600 nM in data set [4]; 1000 nM on human STING variant AQ. The Papp A→B at 10 μM in the data set “in vitro” amounted to 15 ×10⁻⁶ cm/s. In “in vitro”, the efflux ratio at 10 μM is 1.7.

Consider `Cc1c(Cl)ccc2c(-c3cccc4nn(C)cc34)nn(-c3ccc(N4C[C@@H]5[C@H](C4)[C@H]5C(=O)O)nc3)c12` [compound 8, (1R,5S,6r)-3-(5-(6-chloro-2′,7-dimethyl-1H,2′H-[3,4′-biindazol]-1-yl)pyridin-2-yl)-3-azabicyclo[3.1.0]hexane-6-carboxylic acid], for which the “TM (changes in TM, thermal shift)” value in data set [1] came to 22 K. In addition, the EC50 (at human STING variant HAQ; in data set [2]; in data set [3]; in data set [4]; at human STING variant AQ) was 100 nM in each case. The same compound had a Papp A→B at 10 μM in “in vitro” of 11 ×10⁻⁶ cm/s. For the same compound, in “in vitro”, the efflux ratio at 10 μM turned out to be 1.4.

With `Cc1cc(F)cc2c(-c3cccc4nn(C)cc34)nn(-c3ccc(N4CCC(C(=O)O)CC4)nc3)c12` [compound 4, 1-(5-(5-Fluoro-2′,7-dimethyl-1H,2′H-[3,4′-biindazol]-1-yl)pyridin-2-yl)piperidine-4-carboxylic acid], the “TM (changes in TM, thermal shift)” value in data set [1] came to 24 K. Besides, the EC50 at human STING variant HAQ is 700 nM; in data set [2], 500 nM; in data set [3], 300 nM; in data set [4] it was 300 nM; at human STING variant AQ, 300 nM. Also, in the data set “in vitro”, the Papp A→B at 10 μM stood at 19 ×10⁻⁶ cm/s. In “in vitro”, the efflux ratio at 10 μM turned out to be 1.

The values above are taken from US20240166629A1, “HETEROCYCLIC COMPOUNDS CAPABLE OF ACTIVATING STING” (Boehringer Ingelheim International GmbH, priority 2022, published 2024).
